Drawing on ChEMBL document CHEMBL1773033, “Cyclic lactam hybrid α-MSH/Agouti-related protein (AGRP) analogues with nanomolar range binding affinities at the human melanocortin receptors” (Bioorg Med Chem Lett, 2011), this text covers EC50, IC50 and Activity for 11 molecules.

For test [1], the target named is T1, Melanocortin receptor 3 (Homo sapiens, UniProt P41968). In words: Agonist activity at human MC3R expressed in HEK293 cells assessed as intracellular cAMP accumulation. In kind it is functional, cell-based. On the technique in general: cAMP levels reflect the balance of adenylyl cyclase and phosphodiesterase activity.
Test [2] concerns the target T2, Melanocortin receptor 4 (Homo sapiens, UniProt P32245). In words: Agonist activity at human MC4R expressed in HEK293 cells assessed as intracellular cAMP accumulation. In kind it is functional, cell-based.
Test [3] addresses T2, Melanocortin receptor 4. Nature of the test: Displacement of [125I]-NDP-alpha-MSH from human MC4R expressed in HEK293 cells after 40 mins by Wallac 1470 gamma counting. It is filed as cell-based. On the technique in general: In a radioligand displacement assay an active substance lowers the binding of a labelled ligand.
In test [4] the target is T3, Melanocortin receptor 5 (Homo sapiens, UniProt P33032). Nature of the test: Agonist activity at human MC5R expressed in HEK293 cells assessed as intracellular cAMP accumulation. In kind it is functional, cell-based.
Test [5] concerns the target T1, Melanocortin receptor 3. Nature of the test: Displacement of [125I]-NDP-alpha-MSH from human MC3R expressed in HEK293 cells at 10 uM after 40 mins by Wallac 1470 gamma counting relative to Ac-Nle-c[Asp-His-D-Phe-Arg-Trp-Lys]-NH2. It is filed as cell-based.
Test [6] has as its target T2, Melanocortin receptor 4. Nature of the test: Agonist activity at human MC4R expressed in HEK293 cells assessed as increase in intracellular cAMP level at 10 uM after 3 mins by luminescence counter relative to Ac-Nle-c[Asp-His-D-Phe-Arg-Trp-Lys]-NH2. It is filed as functional, cell-based.
Test [7] has as its target T4, Melanocyte-stimulating hormone receptor (Homo sapiens, UniProt Q01726). In words: Agonist activity at human MC1R expressed in HEK293 cells assessed as increase in intracellular cAMP accumulation. In kind it is functional, cell-based.
Target sequence in this assay (Q01726 whole entry): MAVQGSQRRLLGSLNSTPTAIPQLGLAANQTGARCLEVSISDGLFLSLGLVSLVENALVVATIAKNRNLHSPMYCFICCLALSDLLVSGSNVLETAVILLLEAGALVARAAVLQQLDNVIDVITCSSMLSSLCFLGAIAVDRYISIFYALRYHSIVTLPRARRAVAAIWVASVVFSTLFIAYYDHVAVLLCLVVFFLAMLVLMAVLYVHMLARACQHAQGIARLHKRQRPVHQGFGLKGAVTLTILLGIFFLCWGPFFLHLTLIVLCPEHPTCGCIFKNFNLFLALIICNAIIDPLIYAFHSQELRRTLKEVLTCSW
In test [8] the target is T4, Melanocyte-stimulating hormone receptor. In words: Displacement of [125I]-NDP-alpha-MSH from human MC1R expressed in HEK293 cells after 40 mins by Wallac 1470 gamma counting. In kind it is cell-based.
Target sequence in this assay (Q01726 whole entry): as above
In test [9] the target is T3, Melanocortin receptor 5. In words: Agonist activity at human MC5R expressed in HEK293 cells assessed as increase in intracellular cAMP level at 10 uM after 3 mins by luminescence counter relative to Ac-Nle-c[Asp-His-D-Phe-Arg-Trp-Lys]-NH2. In kind it is functional, cell-based.
Test [10] concerns the target T3, Melanocortin receptor 5. In words: Displacement of [125I]-NDP-alpha-MSH from human MC5R expressed in HEK293 cells after 40 mins by Wallac 1470 gamma counting. It is filed as cell-based.
Test [11] addresses T4, Melanocyte-stimulating hormone receptor. Nature of the test: Agonist activity at human MC1R expressed in HEK293 cells assessed as increase in intracellular cAMP level at 10 uM after 3 mins by luminescence counter relative to Ac-Nle-c[Asp-His-D-Phe-Arg-Trp-Lys]-NH2. In kind it is functional, cell-based.
Target sequence in this assay (Q01726 whole entry, looked up): as the sequence (Q01726 whole entry) above
In test [12] the target is T1, Melanocortin receptor 3. In words: Displacement of [125I]-NDP-alpha-MSH from human MC3R expressed in HEK293 cells after 40 mins by Wallac 1470 gamma counting. In kind it is cell-based.
Test [13] addresses T4, Melanocyte-stimulating hormone receptor. Nature of the test: Displacement of [125I]-NDP-alpha-MSH from human MC1R expressed in HEK293 cells at 10 uM after 40 mins by Wallac 1470 gamma counting relative to Ac-Nle-c[Asp-His-D-Phe-Arg-Trp-Lys]-NH2. In kind it is cell-based.
Target sequence in this assay (Q01726 whole entry, looked up): as the sequence (Q01726 whole entry) above
Test [14] addresses T1, Melanocortin receptor 3. Nature of the test: Agonist activity at human MC3R expressed in HEK293 cells assessed as increase in intracellular cAMP level at 10 uM after 3 mins by luminescence counter relative to Ac-Nle-c[Asp-His-D-Phe-Arg-Trp-Lys]-NH2. It is filed as functional, cell-based.
Test [15] deals with T2, Melanocortin receptor 4. Nature of the test: Displacement of [125I]-NDP-alpha-MSH from human MC4R expressed in HEK293 cells at 10 uM after 40 mins by Wallac 1470 gamma counting relative to Ac-Nle-c[Asp-His-D-Phe-Arg-Trp-Lys]-NH2. In kind it is cell-based.

Positions of bridges follow the written chain, without caps; N, C: chain ends. Non-standard residues stand in square brackets, D forms with d. Residues, ends and D or L forms follow the SMILES beside them. 2Nal = N[C@@H](Cc1ccc2ccccc2c1)C(=O)O

T2 sequence (P32245 whole entry): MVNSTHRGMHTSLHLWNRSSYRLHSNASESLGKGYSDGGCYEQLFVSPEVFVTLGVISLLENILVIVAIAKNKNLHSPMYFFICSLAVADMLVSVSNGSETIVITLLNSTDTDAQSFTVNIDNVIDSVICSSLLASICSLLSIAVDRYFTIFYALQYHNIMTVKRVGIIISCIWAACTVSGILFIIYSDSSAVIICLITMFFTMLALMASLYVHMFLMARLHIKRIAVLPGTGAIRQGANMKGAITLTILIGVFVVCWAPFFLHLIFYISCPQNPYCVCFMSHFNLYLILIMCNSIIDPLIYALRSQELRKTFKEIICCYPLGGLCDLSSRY
T1 sequence (P41968 whole entry): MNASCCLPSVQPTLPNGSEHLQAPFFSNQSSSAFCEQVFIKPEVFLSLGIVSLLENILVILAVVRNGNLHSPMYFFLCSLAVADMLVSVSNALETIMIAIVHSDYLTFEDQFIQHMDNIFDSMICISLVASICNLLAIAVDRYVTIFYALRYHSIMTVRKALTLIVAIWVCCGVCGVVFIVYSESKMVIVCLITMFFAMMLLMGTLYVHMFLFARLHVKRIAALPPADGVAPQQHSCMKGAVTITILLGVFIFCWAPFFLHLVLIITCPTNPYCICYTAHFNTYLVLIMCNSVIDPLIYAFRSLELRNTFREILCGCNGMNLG
T3 sequence (P33032 whole entry): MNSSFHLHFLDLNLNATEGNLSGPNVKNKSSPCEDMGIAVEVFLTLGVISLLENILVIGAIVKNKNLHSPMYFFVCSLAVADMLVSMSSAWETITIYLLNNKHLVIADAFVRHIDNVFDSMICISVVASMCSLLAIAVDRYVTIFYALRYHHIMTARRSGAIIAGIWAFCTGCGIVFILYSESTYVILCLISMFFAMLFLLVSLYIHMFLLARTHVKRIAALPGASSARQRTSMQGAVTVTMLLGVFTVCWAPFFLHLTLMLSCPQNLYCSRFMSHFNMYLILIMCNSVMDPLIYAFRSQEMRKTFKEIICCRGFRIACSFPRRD

In the case of `C[C@@H]1NC(=O)[C@@H](CCCNC(=N)N)NC(=O)[C@H](Cc2ccccc2)NC(=O)[C@H](Cc2c[nH]c3ccccc23)NC(=O)[C@H](CCCNC(=N)N)NC(=O)CC[C@@H](C(N)=O)NC(=O)[C@H](Cc2ccccc2)NC1=O`, the EC50 entry in [1], in test [2], in [4] and in test [7] was “Not Active” throughout. In addition, in [3], the IC50 entry was “Not Active”. Also, the Activity worked out at 30% in test [5] and 0% in test [6].
Turning to `C[C@@H]1NC(=O)[C@H](CCCNC(=N)N)NC(=O)[C@@H](Cc2ccccc2)NC(=O)[C@H](Cc2c[nH]c3ccccc23)NC(=O)[C@H](CCCNC(=N)N)NC(=O)CC[C@@H](C(N)=O)NC(=O)[C@H](Cc2ccccc2)NC1=O`, the EC50 entry in test [1], in test [2] and in test [4] was “Not Active” each time.
As for `CC(=O)N[C@H]1CC(=O)NCCCC[C@@H](C(N)=O)NC(=O)[C@@H](CC(N)=O)NC(=O)[C@H](Cc2ccc3ccccc3c2)NC(=O)[C@H](Cc2c[nH]c3ccccc23)NC(=O)[C@H](CCCNC(=N)N)NC1=O` (Ac-DRW[2Nal][dN]K-NH2; lactam 1-6), the IC50 result in test [8], in [3], in test [10] and in test [12] was “Not Active” in each case. The Activity in test [9], in test [5], in test [6] and in test [11] was 0% throughout. Besides, the EC50 entry in [1], in [2], in [4] and in [7] was “Not Active” each time.
For `CC(=O)N[C@H]1CC(=O)NCCCC[C@@H](C(N)=O)NC(=O)[C@@H](CCC(N)=O)NC(=O)[C@H](Cc2ccc3ccccc3c2)NC(=O)[C@H](Cc2c[nH]c3ccccc23)NC(=O)[C@H](CCCNC(=N)N)NC1=O` (Ac-DRW[2Nal][dQ]K-NH2; lactam 1-6), the IC50 result in test [8], in [3], in test [10] and in test [12] was “Not Active” throughout. In addition, the Activity in [9], in test [5], in test [6] and in test [11] was 0% throughout. The EC50 entry in test [1], in [2], in test [4] and in test [7] was “Not Active” throughout.
In the case of `C[C@@H]1NC(=O)[C@H](CC(N)=O)NC(=O)[C@H](Cc2ccccc2)NC(=O)[C@H](Cc2c[nH]c3ccccc23)NC(=O)[C@H](CCCNC(=N)N)NC(=O)CC[C@@H](C(N)=O)NC(=O)[C@H](Cc2ccccc2)NC1=O` (RWFNAFE-NH2; lactam N-7), the Activity in test [13], in test [9], in test [14] and in test [6] was 0% throughout. Besides, the IC50 result in test [8], in [3], in test [10] and in test [12] was “Not Active” each time. Moreover, the EC50 entry in test [1], in [2], in test [4] and in test [7] was “Not Active” each time.
Consider `C[C@@H]1NC(=O)[C@@H](Cc2cnc[nH]2)NC(=O)[C@H](Cc2ccccc2)NC(=O)[C@H](Cc2c[nH]c3ccccc23)NC(=O)[C@H](CCCNC(=N)N)NC(=O)CC[C@@H](C(N)=O)NC(=O)[C@H](Cc2ccccc2)NC1=O` (RWF[dH]AFE-NH2; lactam N-7), for which the Activity in test [9], in test [14] and in test [6] was 0% in each case. Moreover, the EC50 entry in test [1], in test [2], in test [4] and in test [7] was “Not Active” in each case. Also, the IC50 result in test [3], in test [10] and in test [12] was “Not Active” in each case.
For the molecule `C[C@@H]1NC(=O)[C@@H](CC(N)=O)NC(=O)[C@H](Cc2ccccc2)NC(=O)[C@H](Cc2c[nH]c3ccccc23)NC(=O)[C@H](CCCNC(=N)N)NC(=O)CC[C@@H](C(N)=O)NC(=O)[C@H](Cc2ccccc2)NC1=O` (RWF[dN]AFE-NH2; lactam N-7), the Activity in [13], in test [9], in [5] and in test [6] was 0% each time. In addition, the IC50 result in test [8], in [3], in test [10] and in [12] was “Not Active” throughout. Further, the EC50 entry in test [1], in test [2], in [4] and in test [7] was “Not Active” in each case.
Take `C[C@@H]1NC(=O)[C@@H](CCC(N)=O)NC(=O)[C@H](Cc2ccccc2)NC(=O)[C@H](Cc2c[nH]c3ccccc23)NC(=O)[C@H](CCCNC(=N)N)NC(=O)CC[C@@H](C(N)=O)NC(=O)[C@H](Cc2ccccc2)NC1=O` (RWF[dQ]AFE-NH2; lactam N-7): the IC50 result in test [8], in test [3], in [10] and in test [12] was “Not Active” in each case. Besides, the Activity in test [15], in test [9], in test [5] and in [11] was 0% in each case. The EC50 entry in [1], in test [2], in test [4] and in test [7] was “Not Active” throughout.
Consider `C[C@@H]1NC(=O)[C@@H](CCC(N)=O)NC(=O)[C@H](Cc2ccc3ccccc3c2)NC(=O)[C@H](Cc2c[nH]c3ccccc23)NC(=O)[C@H](CCCNC(=N)N)NC(=O)CC[C@@H](C(N)=O)NC(=O)[C@H](Cc2ccccc2)NC1=O` (RW[2Nal][dQ]AFE-NH2; lactam N-7), for which the Activity in test [13], in test [9], in [14] and in test [6] was 0% each time. The IC50 entry in test [8], in [3], in test [10] and in [12] was “Not Active” each time. In addition, the EC50 entry in test [1], in test [2], in test [4] and in test [7] was “Not Active” in each case.
Regarding `C[C@@H]1NC(=O)[C@H](Cc2cnc[nH]2)NC(=O)[C@@H](Cc2ccccc2)NC(=O)[C@H](Cc2c[nH]c3ccccc23)NC(=O)[C@H](CCCNC(=N)N)NC(=O)CC[C@@H](C(N)=O)NC(=O)[C@H](Cc2ccccc2)NC1=O` (RW[dF]HAFE-NH2; lactam N-7), the IC50 entry in [8], in test [3], in test [10] and in test [12] was “Not Active” in each case. The Activity in test [15], in test [9], in test [14] and in [11] was 0% throughout. In addition, the EC50 entry in [1], in test [2], in test [4] and in [7] was “Not Active” throughout.
As for `C[C@@H]1NC(=O)[C@H](CC(N)=O)NC(=O)[C@@H](Cc2ccccc2)NC(=O)[C@H](Cc2c[nH]c3ccccc23)NC(=O)[C@H](CCCNC(=N)N)NC(=O)CC[C@@H](C(N)=O)NC(=O)[C@H](Cc2ccccc2)NC1=O` (RW[dF]NAFE-NH2; lactam N-7), the Activity in test [13], in test [9], in test [14] and in test [6] was 0% throughout. In addition, the IC50 result in test [8], in test [3], in test [10] and in test [12] was “Not Active” throughout. In addition, the EC50 result in [1], in [2], in [4] and in [7] was “Not Active” throughout.
